The values below come from ChEMBL document CHEMBL6177953, “Discovery of a novel quinoxaline derivative modulator via a dual P53/TLR2 targeting strategy for the alleviation of radiation damage” (Eur J Med Chem, 2025).

Activity calls are given as the source filed them. The rule behind the calls is not given here. A value given as a limit tells only on which side of the number the result lay.

Data set [1] has as its system AHH-1. The data set can be described thus: Antiradiation activity in human AHH-1 cells assessed as increase in cell viability at 2.5 to 10 micromol/L pre-treated with compound for 24 hrs followed by irradiation at 6 Gy measured after 24 hrs by CCK-8 assay. Format: functional, cell-based. Conditions: dose 2.5-10 µmol/L, time 48.0 hrs.
Data set [2] deals with AHH-1. The data set can be described thus: Antiradiation activity in human AHH-1 cells assessed as increase in cell viability at 2.5 to 10 micromol/L pre-treated with compound for 24 hrs followed by irradiation at 8 Gy measured after 24 hrs by CCK-8 assay. Format: functional, cell-based. Conditions: dose 2.5-10 µmol/L, time 48.0 hrs. A general note: Tetrazolium assays rely on reduction of a dye to a coloured formazan, in cell work by metabolically active cells.

Data set [3] has as its system AHH-1. The data set can be described thus: Antiradiation activity in human AHH-1 cells assessed as increase in cell viability at 2.5 to 10 micromol/L pre-treated with compound for 24 hrs followed by irradiation at 4 Gy measured after 24 hrs by CCK-8 assay. Format: functional, cell-based. The note with it: dose 2.5-10 µmol/L, time 48.0 hrs.
Data set [4] has as its system AHH-1. The data set can be described thus: Cytotoxicity against human AHH-1 cells incubated for 24 to 96 hrs by CCK-8 assay. Format: functional, cell-based.
A short description of data set [5]: Cytotoxicity against HUVEC incubated for 24 to 96 hrs by CCK-8 assay. Format: toxicity, cell-based. Conditions: human, HUVEC cells.
The test system of data set [6] is Mus musculus. The data set can be described thus: Radioprotective activity in male C57BL/6J mouse assessed as survival rate at 250 mg/kg, ip pre-treated with compound for 24.25 hrs followed by irradiation at 8.5 Gy and measured for 30 days post irradiation relative to control. Format: functional. Conditions: time 744.25 hrs.
Data set [7] deals with Mus musculus. The data set can be described thus: Radioprotective activity in male C57BL/6J mouse assessed as increase in body weight at 100 to 300 mg/kg, ip pre-treated with compound for 24.25 hrs followed by irradiation at 8.5 Gy and measured on day 18 post irradiation. Format: functional, organism-based. Conditions: dose 100-300 mg/kg, time 456.25 hrs.
The subject of data set [8] is HUVEC. The data set can be described thus: Antiradiation activity in human HUVEC assessed as cell viability at 5 to 20 micromol/L pre-treated with compound for 24 hrs followed by irradiation at 8 Gy measured after 96 hrs by CCK-8 assay. Format: functional, cell-based. Conditions: dose 5-20 µmol/L, time 120.0 hrs.
Data set [9] relates to HUVEC. The data set can be described thus: Antiradiation activity in human HUVEC assessed as cell viability at 5 to 20 micromol/L pre-treated with compound for 24 hrs followed by irradiation at 6 Gy measured after 96 hrs by CCK-8 assay. Format: functional, cell-based. Conditions: dose 5-20 µmol/L, time 120.0 hrs.
Data set [10] has as its system Mus musculus. The data set can be described thus: Radioprotective activity in male C57BL/6J mouse assessed as survival rate at 100 mg/kg, ip pre-treated with compound for 24.25 hrs followed by irradiation at 8.5 Gy and measured for 30 days post irradiation relative to control. Format: functional. Conditions: time 744.25 hrs.

Broadly, the IC50 is the concentration at which inhibition is half-maximal. With `O=S(=O)(Cc1ccc(F)cc1)c1cnc2cc(Cl)ccc2n1`, the outcome in data set [1], in [2] and in data set [3] was Active. Further, the IC50 in [4] worked out at 6.32 µM.

As for `[O-][S+](Cc1ccc(F)cc1)c1cnc2cc(Cl)ccc2n1` (stereo unspecified), the IC50 in data set [4] was determined as 5.23 µM.

`[O-][S+](Cc1ccc(F)cc1)c1cnc2cc(Br)ccc2n1` (stereo unspecified) showed an IC50 in data set [4] greater than 60 µM.

In data set [4], `Clc1ccc(CSc2cnc3cc(Br)ccc3n2)cc1` gave an IC50 of 3.03 µM.

Turning to `Cc1ccc(CS(=O)(=O)c2cnc3ccccc3n2)cc1`, the half-maximal inhibitory concentration (IC50) in data set [5] stood at 56.1 µM; in [4], 36.5 µM. Further, the result in data set [1], in [7], in data set [8], in data set [2], in [3] and in [9] was Active. Also, the Activity in data set [6] is given as 80%.

Regarding `[O-][S+](Cc1ccc(F)cc1)c1cnc2ccccc2n1` (stereo unspecified), the result in [1], in data set [2] and in data set [3] was Active. Further, in data set [4], the 50% inhibitory concentration (IC50) is greater than 60 µM.

Turning to `O=C(O)c1ccc(CSc2cnc3cc(Cl)ccc3n2)cc1`, the result in data set [1], in data set [2] and in [3] was Active. For the same compound, in [4], the IC50 was greater than 60 µM.

In [4], `Cc1ccc(CS(=O)(=O)c2cnc3cc(Cl)ccc3n2)cc1` had an IC50 of 27.7 µM.

Take `N#Cc1ccc(CSc2cnc3cc(Cl)ccc3n2)cc1`: the result in data set [1], in data set [2] and in data set [3] was Active. This compound also displayed an IC50 in data set [4] greater than 60 µM.

With `Clc1ccc(CSc2cnc3cc(Cl)ccc3n2)cc1`, the result in data set [1], in data set [2] and in data set [3] was Active. It took 53.8 µM to reach half-maximal inhibition in [4] (IC50).

For `O=S(=O)(Cc1ccc(F)cc1)c1cnc2ccccc2n1`, the IC50 in data set [4] is greater than 60 µM.

Compound `Fc1ccc(CSc2cnc3cc(Cl)ccc3n2)cc1` showed a half-maximal inhibitory concentration (IC50) in [4] greater than 60 µM.

For the compound `O=C(O)c1ccc(CS(=O)(=O)c2cnc3ccccc3n2)cc1`, the result in data set [1], in data set [2] and in [3] was Active. This compound also displayed an IC50 in [4] greater than 60 µM.

For the compound `O=S(=O)(Cc1ccc(Br)cc1)c1cnc2cc(Cl)ccc2n1`, the outcome in data set [1], in [2] and in data set [3] was Active. The compound also registered a half-maximal inhibitory concentration (IC50) in data set [4] of 15.5 µM.

In the case of `[O-][S+](Cc1ccc(Br)cc1)c1cnc2ccccc2n1` (stereo unspecified), the IC50 in data set [4] is greater than 60 µM.

The compound `O=S(=O)(Cc1ccc(F)cc1)c1cnc2cc(Br)ccc2n1` gave a 50% inhibitory concentration (IC50) in data set [4] greater than 60 µM.

For `Fc1ccc(CSc2cnc3ccccc3n2)cc1`, the outcome in [1], in [2] and in data set [3] was Active. Moreover, the IC50 in data set [4] was 58.8 µM.

As to `[O-][S+](Cc1ccccc1)c1cnc2cc(Cl)ccc2n1` (stereo unspecified), the IC50 in data set [4] came out at 6.28 µM.

In the case of `COc1ccc(CSc2cnc3cc(Cl)ccc3n2)cc1`, the result in [1], in data set [2] and in data set [3] was Active. Also, the IC50 in [4] is greater than 60 µM.

In the case of `Clc1ccc2nc(SCc3ccc(Br)cc3)cnc2c1`, the IC50 in data set [4] is greater than 60 µM.

Consider `Cc1ccc(CS(=O)(=O)c2cnc3cc(Br)ccc3n2)cc1`, for which the concentration for half-maximal inhibition (IC50) in data set [4] was greater than 60 µM.

As for `N#Cc1ccc(CSc2cnc3ccccc3n2)cc1`, the outcome in data set [1], in [2] and in data set [3] was Active. The compound also returned an IC50 in data set [4] of 17.3 µM.

Regarding `Cc1ccc(CSc2cnc3cc(Cl)ccc3n2)cc1`, the outcome in data set [1], in data set [2] and in data set [3] was Active. In [4], this compound showed an IC50 greater than 60 µM.

In the case of `Brc1ccc(CSc2cnc3ccccc3n2)cc1`, the result in data set [1], in data set [2] and in data set [3] was Active. In data set [4], this compound registered a half-inhibitory concentration (IC50) of 8.9 µM.

On to `Cc1ccc(CSc2cnc3cc(Br)ccc3n2)cc1`, for which, in [4], the IC50 turned out to be 11.3 µM.

The compound `[O-][S+](Cc1ccc(Br)cc1)c1cnc2cc(Cl)ccc2n1` (stereo unspecified) registered an IC50 in data set [4] of 12.9 µM.

Regarding `O=S(=O)(Cc1ccc(Cl)cc1)c1cnc2ccccc2n1`, the half-inhibitory concentration (IC50) in data set [4] was found to be 5.56 µM.

On to `Fc1ccc(CSc2cnc3cc(Br)ccc3n2)cc1`, for which the result in [1], in data set [2] and in data set [3] was Active. The midpoint of inhibition in data set [4], the IC50, lay at 22.2 µM.

In the case of `Clc1ccc2nc(SCc3ccccc3)cnc2c1`, the outcome in data set [1], in [2] and in [3] was Active. In addition, the IC50 in data set [4] is greater than 60 µM.

With `O=S(=O)(Cc1ccc(Cl)cc1)c1cnc2cc(Cl)ccc2n1`, in [4], the half-maximal inhibitory concentration (IC50) stood at 18.6 µM.

For `Clc1ccc(CSc2cnc3ccccc3n2)cc1`, the outcome in [1], in data set [2] and in data set [3] was Active. The half-inhibitory concentration (IC50) in [4] worked out at 16.6 µM.

Consider `O=C(O)c1ccc(CS(=O)(=O)c2cnc3cc(Cl)ccc3n2)cc1`, for which the results for the IC50 in [5] and in data set [4] were greater than 60 µM and 22.4 µM, respectively. Further, the result in [1], in [7], in data set [2] and in data set [3] was Active. Moreover, the Activity in [10] was 50%.

In the case of `[O-][S+](Cc1ccc(Cl)cc1)c1cnc2cc(Cl)ccc2n1` (stereo unspecified), the IC50 in [4] was 11.2 µM.

For the compound `COc1ccc(CSc2cnc3ccccc3n2)cc1`, the outcome in data set [1], in data set [2] and in [3] was Active. The half-maximal inhibitory concentration (IC50) in data set [4] is greater than 60 µM.

In data set [4], `Brc1ccc(CSc2cnc3cc(Br)ccc3n2)cc1` had an IC50 of 4.58 µM.

`O=S(=O)(Cc1ccc(Br)cc1)c1cnc2ccccc2n1`: the outcome in data set [1], in [2] and in [3] was Active. The IC50 in data set [4] is greater than 60 µM.

For `O=C(O)c1ccc(CSc2cnc3ccccc3n2)cc1`, the outcome in data set [1], in data set [2] and in data set [3] was Active. Besides, the IC50 in data set [4] was greater than 60 µM.

As for `COc1ccc(CSc2cnc3cc(Br)ccc3n2)cc1`, the outcome in [1], in [2] and in data set [3] was Active. 39.5 µM corresponded to half-maximal inhibition in data set [4] (IC50).

In data set [4], `O=S(=O)(Cc1ccccc1)c1cnc2cc(Cl)ccc2n1` displayed a half-inhibitory concentration (IC50) of 6.27 µM.

With `N#Cc1ccc(CS(=O)(=O)c2cnc3cc(Cl)ccc3n2)cc1`, the result in [1], in data set [2] and in [3] was Active. In [4], this compound had a 50% inhibitory concentration (IC50) of 4.8 µM.

`Cc1ccc(C[S+]([O-])c2cnc3cc(Cl)ccc3n2)cc1` (stereo unspecified) showed an IC50 in [4] of 13 µM.

Compound `O=S(=O)(Cc1ccc(Cl)cc1)c1cnc2cc(Br)ccc2n1` showed an IC50 in data set [4] greater than 60 µM.

Regarding `O=C(O)c1ccc(CSc2cnc3cc(Br)ccc3n2)cc1`, the outcome in [1], in [2] and in data set [3] was Active. In data set [4], this compound came in with a concentration for half-maximal inhibition (IC50) greater than 60 µM.

For the compound `Cc1ccc(CSc2cnc3ccccc3n2)cc1`, the outcome in data set [1], in [2] and in [3] was Active. In [4], this compound registered a half-inhibitory concentration (IC50) greater than 60 µM.

Take `N#Cc1ccc(C[S+]([O-])c2cnc3cc(Cl)ccc3n2)cc1` (stereo unspecified): in data set [4], the midpoint of inhibition, the IC50, lay at 4.59 µM.

In turn, `O=S(=O)(Cc1ccc(Br)cc1)c1cnc2cc(Br)ccc2n1` registered an IC50 in [4] of 21.7 µM.
